Experimental data from PubChem BioAssay (NCI).
Several values for one entry are separate records, joined by “and”; a condition that tells them apart may be missing. Equal entries are not always repeated.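 Test compounds were applied to cells in 96-well plates for 48 hours at 5 doses. The concentration for 50% growth inhibition is given as GI50. TGI: concentration producing complete growth inhibition.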

What was measured:
Assay in all cases: inhibition of tumour cell growth, NCI panel, 48 h
K-562 leukemia = tested on: K-562 leukemia
SF-268 CNS = tested on: SF-268 CNS
OVCAR-5 ovarian = tested on: OVCAR-5 ovarian
SW-620 colon = tested on: SW-620 colon
UACC-62 melanoma = tested on: UACC-62 melanoma
U251 CNS = tested on: U251 CNS
SF-295 CNS = tested on: SF-295 CNS
RPMI-8226 leukemia = tested on: RPMI-8226 leukemia
HCT-116 colon = tested on: HCT-116 colon
A498 renal = tested on: A498 renal

| Structure (SMILES) | TGI (K-562 leukemia) | TGI (SF-268 CNS) | TGI (OVCAR-5 ovarian) | TGI (SW-620 colon) | TGI (UACC-62 melanoma) | TGI (U251 CNS) | TGI (SF-295 CNS) | TGI (RPMI-8226 leukemia) | TGI (HCT-116 colon) | TGI (A498 renal) | GI50 (K-562 leukemia) | GI50 (SF-268 CNS) | GI50 (OVCAR-5 ovarian) | GI50 (SW-620 colon) | GI50 (UACC-62 melanoma) | GI50 (U251 CNS) | GI50 (SF-295 CNS) | GI50 (RPMI-8226 leukemia) | GI50 (HCT-116 colon) | GI50 (A498 renal) |
| --- | --- | --- | --- | --- | --- | --- | --- | --- | --- | --- | --- | --- | --- | --- | --- | --- | --- | --- | --- | --- |
| c1cncc(C2N3CCCCC3[C@@H]3c4[nH]c5ccccc5c4CCN23)c1 (stereo partly drawn) | > 100 µM | > 100 µM | > 100 µM | > 100 µM | > 100 µM | > 100 µM | > 100 µM | > 100 µM | > 100 µM | > 100 µM | – | – | – | – | – | – | – | – | – | – |
| COc1cc2nc(N3CCCC3)nc(NCc3ccccc3)c2cc1OC | 6.02 µM | 23.9 µM | 16.8 µM | 6.24 µM | 5.39 µM | 3.92 µM | 3.46 µM | 5.99 µM | 4.12 µM | 8.56 µM | 2.09 µM | 8.31 µM | 4.63 µM | 2.28 µM | 2.28 µM | 1.88 µM | 1.84 µM | 2.44 µM | 1.82 µM | 2.16 µM |
| Nc1ncnc2c1N=C(c1ccc3c(c1)OCO3)CC(c1ccc([N+](=O)[O-])cc1)N2 (stereo not drawn) | > 100 µM | > 100 µM | > 100 µM | > 100 µM | > 100 µM | > 100 µM | > 100 µM | 49 µM | > 100 µM | 90 µM | 22.5 µM | 42 µM | > 100 µM | 53.2 µM | 76.9 µM | 49.3 µM | 64.2 µM | 0.194 µM | 18.2 µM | 25.1 µM |
| CC1=C(c2cccc(O)c2)[C@H](c2ccc(OCCN3CC(CF)C3)cc2)Oc2ccc(O)cc21 | 17.9 µM | 21.6 µM | 25 µM | 20.9 µM | 22.6 µM | 18.1 µM | 16.5 µM | 27.1 µM | 17.5 µM | 9.66 µM | 3.33 µM | 6.28 µM | 12.4 µM | 7.28 µM | 10.4 µM | 4.19 µM | 4.27 µM | 8.11 µM | 4.46 µM | 1.68 µM |
| O=C(c1ccc(Cl)cc1Cl)C1[C@H]2C(=O)N(c3ccc(Cc4ccc(N5C(=O)[C@@H]6ON(c7ccccc7)C(C(=O)c7ccc(Cl)cc7Cl)[C@@H]6C5=O)cc4)cc3)C(=O)[C@H]2ON1c1ccccc1 (stereo partly drawn) | > 50 µM | > 50 µM | > 50 µM | > 50 µM | > 50 µM | > 50 µM | > 50 µM | > 50 µM | > 50 µM | > 50 µM | – | – | – | – | – | – | – | – | – | – |
| Cc1ccccc1C1OC(=O)c2ccc3ccccc3c21 (stereo not drawn) | 19.5 µM | 14.8 µM | > 31.6 µM | 21.7 µM | 6.97 µM | 13.3 µM | > 31.6 µM | 5.43 µM | 7.14 µM | 8.51 µM | – | – | – | – | – | – | – | – | – | – |
| CCCCCCCCCCCCCCCC(=O)OCC1OC(n2cc(F)c(=O)[nH]c2=O)C(N)C(O)C1O (stereo not drawn) | 32.8 µM | 35.2 µM | 58.8 µM | 30.4 µM | 30 µM | 32.4 µM | 31.1 µM | 51.3 µM | 34.4 µM | 61.3 µM | – | – | – | – | – | – | – | – | – | – |
| Cc1cc2c(C(C)C)c(O)c(O)cc2c(O)c1-c1c(C)cc2c(C(C)C)c(O)c(O)cc2c1O | 27.7 µM | 34.6 µM | 36.5 µM | 40.5 µM | 14.3 µM | 14.5 µM | 58 µM | 39.3 µM | 14 µM | 32.2 µM | 5.72 µM | 12 µM | 17.9 µM | 16.7 µM | 2.32 µM | 4.16 µM | 22.5 µM | 13.1 µM | 3.98 µM | 14.1 µM |
| O=C1OCC2=C1C(c1cccc(Cl)c1)c1cc3c(cc1N2CCO)OCCO3 (stereo not drawn) | > 45.7 µM | 13.2 µM | > 100 µM | > 100 µM | > 70 µM | 7.14 µM | 3.25 µM | 19.2 µM | 4.01 µM | 0.58 µM | 0.0481 µM | 0.0598 µM | 0.539 µM | 0.04 µM | 0.0367 µM | 0.0542 µM | 0.0403 µM | 0.129 µM | 0.0566 µM | 0.0265 µM |
| CCCCCCC[CH2][Sn]([CH2]CCCCCCC)([O]c1cccc2cccnc12)[O]c1cccc2cccnc12 | 3.86 µM | 10.7 µM | 8.21 µM | 1.89 µM | 3.9 µM | 3.25 µM | 6.08 µM | 2.84 µM | 10.1 µM | 5.85 µM | 0.586 µM | 2.68 µM | 3.02 µM | 0.391 µM | 1.82 µM | 1.72 µM | 2.38 µM | 0.625 µM | 2.37 µM | 2.62 µM |
| Cc1[nH]c2ccccc2c1CCCO | > 100 µM | > 100 µM | > 100 µM | > 100 µM | > 100 µM | > 100 µM | > 100 µM | > 100 µM | > 100 µM | > 100 µM | > 100 µM | > 100 µM | > 100 µM | > 100 µM | > 100 µM | > 100 µM | > 100 µM | > 100 µM | > 100 µM | > 100 µM |
| O=C1C(c2ccccc2)=C(O)c2cccc3cccc1c23 | > 100 µM | > 100 µM | > 100 µM | > 100 µM | > 100 µM | > 100 µM | > 100 µM | > 100 µM | > 100 µM | > 100 µM | – | – | – | – | – | – | – | – | – | – |
| Cc1cc2c(cc1Cl)SC1=NN(C)C(C)N1S2(=O)=O (stereo not drawn) | > 100 µM | > 100 µM | > 100 µM | > 100 µM | > 100 µM | > 100 µM | > 100 µM | > 100 µM | > 100 µM | > 100 µM | > 100 µM | 98.1 µM | > 100 µM | > 100 µM | > 100 µM | > 100 µM | > 100 µM | > 100 µM | > 100 µM | > 100 µM |
| CC(C)(C)C(=O)OCC1C(=O)OCC1C(=O)N1Cc2cc3ccccc3nc2C1 (stereo not drawn) | 2.64 µM | 24.7 µM | 23.1 µM | 3.17 µM | 15.7 µM | 20.6 µM | 27.4 µM | 4.82 µM | 5.28 µM | 26 µM | – | – | – | – | – | – | – | – | – | – |
| O=C(C/C(=N/O)C(=O)NC1=C(Cl)C(=O)c2ccccc2C1=O)CC(c1ccccc1)c1c(O)c2ccccc2oc1=O (stereo not drawn) | > 100 µM | 42.5 µM | 32.8 µM | > 100 µM | > 100 µM | > 100 µM | 22.8 µM | > 100 µM | 20.6 µM | > 100 µM | – | – | – | – | – | – | – | – | – | – |
| C[C@@]12CCC(=O)c3coc(c31)C(=O)c1cc3c(cc12)C(=O)C=CC3=O | > 56.9 µM | > 1 µM and 38 µM | > 1 µM and 36 µM | > 1 µM and 35.7 µM | > 1 µM and 28.9 µM | > 1 µM and 52.9 µM | > 1 µM and 31.1 µM | > 100 µM | > 1 µM and 28.7 µM | > 100 µM | > 1 µM | > 1 µM | > 1 µM | > 1 µM | > 1 µM | > 1 µM | > 1 µM | > 1 µM | > 1 µM | – |
| COc1ccc2c(c1)C(=O)c1ccc(OC)cc1C2=S | > 100 µM | > 100 µM | > 100 µM | > 100 µM | > 100 µM | 61.7 µM | > 100 µM | > 100 µM | > 100 µM | > 100 µM | – | – | – | – | – | – | – | – | – | – |
| CC(C)CCCC(C)[C@H]1CCC2[C@@H]3CCC4Cc5nc6c(nc5C[C@]4(C)C3CC[C@@]21C)CC1CC[C@@H]2C(CC[C@@]3(C)C2CC[C@@H]3C(C)CCCC(C)C)[C@@]1(C)C6 (stereo partly drawn) | > 100 µM | > 100 µM | > 100 µM | > 100 µM | > 100 µM | > 100 µM | > 100 µM | > 100 µM | > 100 µM | > 100 µM | – | – | – | – | – | – | – | – | – | – |
| COC1CC(O[C@H]2CC[C@@]3(C)[C@H](CC[C@@H]4[C@@H]3CC[C@]3(C)[C@@H](C5=CC(=O)OC5)[C@@H](OC(C)=O)C[C@]43O)C2)OC(C)C1O (stereo partly drawn) | < 0.0135 µM | < 0.01 µM | < 0.01 µM | < 0.01 µM | < 0.01 µM | < 0.01 µM | < 0.01 µM | – | < 0.01 µM | < 0.0137 µM | < 0.01 µM | < 0.01 µM | < 0.01 µM | < 0.01 µM | < 0.01 µM | < 0.01 µM | < 0.01 µM | < 0.01 µM | < 0.01 µM | < 0.01 µM |
| CC(CN(C)C)/C(=N\Nc1ccccc1)c1ccccc1 (stereo not drawn) | 0.527 µM | 16.6 µM | 5.45 µM | > 100 µM | 12.3 µM | 5.88 µM | 0.358 µM | 67.6 µM | > 100 µM | > 100 µM | – | – | – | – | – | – | – | – | – | – |
| COc1ccc(C/C(C)=C(/c2ccc(OCCN3CCCCC3)cc2)c2ccc(OC(=O)NCc3ccccc3)cc2)cc1 | 1.23 µM | 0.787 µM | 0.78 µM | 0.808 µM | 0.817 µM | 0.791 µM | 0.802 µM | 0.963 µM | 0.698 µM | 0.744 µM | 0.301 µM | 0.413 µM | 0.415 µM | 0.419 µM | 0.455 µM | 0.403 µM | 0.436 µM | 0.399 µM | 0.33 µM | 0.398 µM |
| C[C@H](OCc1ccccc1)C(=O)N1CCS(=O)(=O)N2CCC[C@@H]2C1=O | > 100 µM | > 100 µM | > 100 µM | > 100 µM | > 100 µM | > 100 µM | > 100 µM | > 100 µM | > 100 µM | > 100 µM | – | – | – | – | – | – | – | – | – | – |
